Results as given in patent publication US9474790B2, “Stable, protracted GLP-1/glucagon receptor co-agonists for medical use” (Novo Nordisk A/S, priority 2013, dated 2016).
Numbered stars: 1 amine (or outer) side, 2 acyl side, 3 side chain; on linkers, the order of the positions; unused ones are H or OH. Square brackets hold non-standard residues; d marks the D form. Side chains are listed from the residue outwards. Peptide text beside a SMILES is read from it. * marks the point of attachment. C18 diacid = O=C(O)CCCCCCCCCCCCCCCCC(=O)*; γGlu = O=C(O)[C@H](CCC(=O)[*:2])N[*:1]; AEEA = NCCOCCOCC(=O)O; Aib = CC(C)(N)C(=O)O

How the values were obtained:
human GLP-1 receptor [1] = molecular target: T1, human GLP-1 receptor (Homo sapiens, UniProt P43220); test: GLP-1 receptor potency, CRE luciferase reporter gene assay in BHK cells; type: cell-based; details: BHK cells expressing human GLP-1 receptor, read-out: EC50 GLP-1R
T1 construct: expressed in transfected cells; host or cells: BHK cells (parent BHKTS13), clone FCW467-12A/KZ10-1, with CRE luciferase
T1 sequence (P43220 24-463): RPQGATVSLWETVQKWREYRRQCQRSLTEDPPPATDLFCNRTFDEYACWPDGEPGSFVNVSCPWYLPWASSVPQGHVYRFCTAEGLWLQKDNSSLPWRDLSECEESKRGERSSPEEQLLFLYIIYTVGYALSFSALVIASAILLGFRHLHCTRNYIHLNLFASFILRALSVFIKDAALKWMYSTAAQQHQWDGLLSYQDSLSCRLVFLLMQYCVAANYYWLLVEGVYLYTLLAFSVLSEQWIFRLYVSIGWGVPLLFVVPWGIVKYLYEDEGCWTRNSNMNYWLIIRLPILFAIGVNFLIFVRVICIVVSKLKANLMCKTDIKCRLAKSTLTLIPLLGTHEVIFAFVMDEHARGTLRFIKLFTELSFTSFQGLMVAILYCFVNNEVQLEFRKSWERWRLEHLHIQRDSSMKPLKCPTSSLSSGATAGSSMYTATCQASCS
Outline: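 BHK cells stably expressing human GLP-1 receptor with CRE-luciferase reporter, 5×10EE3 cells/well in phenol red-free DMEM with 10 mM Hepes, 2% ovalbumin, 0.2% Pluronic F-68. Compounds at final 1×10EE-6 to 1×10EE-13 M, 3 h at 37° C; steadylite luminescence; EC50 by four-parameter fit, in pM.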

human glucagon receptor = molecular target: T2, human glucagon receptor (Homo sapiens, UniProt P47871); test: Glucagon receptor potency, CRE luciferase reporter gene assay in BHK cells; type: cell-based; details: BHK cells expressing human glucagon receptor, read-out: EC50 GlucR
T2 construct: expressed in transfected cells; host or cells: BHK cells (parent BHK570, CRE luciferase clone BHK/KZ10-20-48), clone pLJ6'-4-25
T2 sequence (P47871 26-477): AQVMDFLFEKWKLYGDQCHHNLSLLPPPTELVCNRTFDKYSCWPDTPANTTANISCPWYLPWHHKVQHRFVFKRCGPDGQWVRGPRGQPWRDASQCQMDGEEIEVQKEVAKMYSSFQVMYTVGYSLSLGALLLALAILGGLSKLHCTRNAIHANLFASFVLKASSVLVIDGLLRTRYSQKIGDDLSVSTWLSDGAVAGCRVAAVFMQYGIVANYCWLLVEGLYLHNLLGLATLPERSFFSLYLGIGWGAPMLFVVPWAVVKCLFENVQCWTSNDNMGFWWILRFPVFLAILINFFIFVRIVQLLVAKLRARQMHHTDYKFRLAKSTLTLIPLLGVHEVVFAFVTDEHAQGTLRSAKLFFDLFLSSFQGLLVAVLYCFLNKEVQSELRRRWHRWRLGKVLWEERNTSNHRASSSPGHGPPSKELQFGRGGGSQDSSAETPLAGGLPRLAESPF
Protocol: The purpose of this example was to test the potency, of the glucagon derivatives of the invention, in vitro. The in vitro potency is the measure of human GLP-1 receptor or glucagon receptor activation, respectively, in a whole cell assay.
In vitro potency was determined by measuring the response of human GLP-1 or glucagon receptor, respectively, in a reporter gene assay. The assay was performed in a stably transfected BHK cell line that expresses either the human GLP-1 receptor or the human glucagon receptor and contains the DNA for the cAMP response element (CRE) coupled to a promoter and the gene for firefly luciferase (CRE luciferase). […] When assay incubation was completed, the luciferase substrate (luciferin) was added and the enzyme converted luciferin to oxyluciferin and produces bioluminescence. The luminescence was measured as the readout for the assay.
The cells used in this assay (clone pLJ6′-4-25) were BHK cells with BHK570 as a parent cell line expressing the CRE luciferase gene (clone BHK/KZ10-20-48) and were established by further transfection with the human glucagon receptor (clone pLJ6′ in pHZ-1 vector).
The cells were cultured at 5% CO2 in DMEM medium with 10% FBS, 1×GlutaMAX, 1 mg/ml G418, 240 nM MTX (methotrexate) and 1% pen/strep (penicillin/streptomycin). They were aliquoted and stored in liquid nitrogen. Before each assay, an aliquot was taken up and washed three times in PBS before being suspended at the desired concentration in assay medium. For 96-well plates the suspension was made to give a final concentration of 5×10EE3 cells/well.
The following chemicals were used in the assay: Pluronic F-68 (10%) (Gibco 2404), ovalbumin (Sigma A5503), DMEM w/o phenol red (Gibco 11880-028), 1 M Hepes (Gibco 15630), Glutamax 100× (Gibco 35050) and steadylite plus (PerkinElmer 6016757).
Assay Medium consisted of DMEM w/o phenol red, 10 mM Hepes, 1× GlutaMAX, 2% Ovalbumin and 0.2% Pluronic F-68.
Cell stocks were thawed in a 37° C. water bath. Cells were washed three times in PBS. The cells were counted and adjusted to 5×10EE3 cells/50 μl (1×10EE5 cells/ml) in Assay Medium. A 50 μl aliquot of cells was transferred to each well in the assay plate.
Stocks of the test compounds and reference compounds were diluted to a concentration of […] in Assay Medium. Compounds were diluted 10-fold to give the following concentrations: 2×10EE-6 M, 2×10EE-7 M, 2×10EE-8 M; 2×10EE-9 M, 2×10EE-10 M, 2×10EE-11 M, 2×10EE-12 M and 2×10EE-13 M. For each compound a blank assay medium control was also included.
A 50 μl aliquot of compound or blank was transferred from the dilution plate to the assay plate. Compounds were tested at the following final concentrations: 1×10EE-6 M, 1×10EE-7 M, 1×10EE-8 M; 1×10EE-9 M, 1×10EE-10 M, 1×10EE-11 M and 1×10EE-12 M and 1×10EE-13 M.
The assay plate was incubated for 3 h in a 5% CO2 incubator at 37° C. The assay plate was removed from the incubator and allowed to stand at room temperature for 15 min. A 100 μl aliquot of steadylite plus reagent was added to each well of the assay plate (reagent is light sensitive). Each assay plate was covered with aluminum foil to protect it from light and shaken for 30 min at room temperature. Each assay plate was read in a Perkin Elmer TopCount NXT instrument.
The data from the TopCount instrument was transferred to GraphPad Prism software. The software performed a non-linear regression (log(agonist) vs response-Variable slope (four parameter)). EC50 values were calculated by the software and reported in pM.

human GLP-1 receptor [2] = molecular target: T1, human GLP-1 receptor; test: GLP-1 receptor binding, 125I-GLP-1 displacement SPA on isolated membranes; details: displacement of 125I-GLP-1 from membranes; read-out: IC50 GLP-1R
Outline: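 SPA displacement of 125I-GLP-1(7-36)NH2 from membranes of BHK cells expressing human GLP-1 receptor, with WGA beads, in 50 mM HEPES, 5 mM EGTA, 5 mM MgCl2, 0.005% Tween 20, pH 7.4. Incubated 2 h at 30°C; IC50 by non-linear regression, run at ≤0.001% or 2.0% final serum albumin.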

EC50 (human GLP-1 receptor [1]) [nM]	EC50 (human glucagon receptor) [nM]	IC50 (human GLP-1 receptor [2]) [nM]	Compound
0.008	0.054	–	CC(C)C[C@H](NC(=O)[C@H](Cc1ccc(O)cc1)NC(=O)[C@H](CCCCN)NC(=O)[C@H](CO)NC(=O)[C@H](CC(C)C)NC(=O)[C@H](CC(=O)O)NC(=O)[C@H](CO)NC(=O)[C@@H](NC(=O)[C@H](Cc1ccccc1)NC(=O)[C@@H](NC(=O)CNC(=O)[C@H](CCC(N)=O)NC(=O)C(C)(C)NC(=O)[C@@H](N)Cc1c[nH]cn1)[C@@H](C)O)[C@@H](C)O)C(=O)N[C@@H](CC(=O)O)C(=O)N[C@@H](CCCCNC(=O)CC[C@H](NC(=O)CC[C@H](NC(=O)COCCOCCNC(=O)COCCOCCNC(=O)CC[C@H](NC(=O)CCCCCCCCCCCCCCCCC(=O)O)C(=O)O)C(=O)O)C(=O)O)C(=O)N[C@@H](CCCNC(=N)N)C(=O)N[C@@H](CCCNC(=N)N)C(=O)N[C@@H](C)C(=O)N[C@@H](CCCNC(=N)N)C(=O)N[C@@H](CC(=O)O)C(=O)N[C@@H](Cc1ccccc1)C(=O)N[C@H](C(=O)N[C@@H](CCC(N)=O)C(=O)N[C@@H](Cc1c[nH]c2ccccc12)C(=O)N[C@@H](CC(C)C)C(=O)N[C@@H](CC(C)C)C(=O)N[C@@H](CO)C(=O)N[C@H](C(N)=O)[C@@H](C)O)C(C)C [Example 1, N^ε16-[(4S)-4-carboxy-4-[[(4S)-4-carboxy-4-[[2-[2-[2-[[2-[2-[2-[[(4S)-4-carboxy-4-(17-carboxyheptadecanoylamino)butanoyl]amino]ethoxy]ethoxy]acetyl]amino]ethoxy]ethoxy]acetyl]amino]butanoyl]amino]butanoyl]-[Aib2,Leu10,Lys16,Arg20,Leu27,Ser28]-Glucagon amide] (H-H[Aib]QGTFTSDLSKYLDK([γGlu-γGlu-AEEA-AEEA-γGlu-C18 diacid])RRARDFVQWLLST-NH2; N-terminus assumed)
0.004	0.016	–	CC(C)C[C@H](NC(=O)[C@H](Cc1ccc(O)cc1)NC(=O)[C@H](CCCCN)NC(=O)[C@H](CO)NC(=O)[C@H](CC(C)C)NC(=O)[C@H](CC(=O)O)NC(=O)[C@H](CO)NC(=O)[C@@H](NC(=O)[C@H](Cc1ccccc1)NC(=O)[C@@H](NC(=O)CNC(=O)[C@H](CCC(N)=O)NC(=O)C(C)(C)NC(=O)[C@@H](N)Cc1c[nH]cn1)[C@@H](C)O)[C@@H](C)O)C(=O)N[C@@H](CC(=O)O)C(=O)N[C@@H](CO)C(=O)N[C@@H](CCCNC(=N)N)C(=O)N[C@@H](CCCNC(=N)N)C(=O)N[C@@H](C)C(=O)N[C@@H](CCCNC(=N)N)C(=O)N[C@@H](CC(=O)O)C(=O)N[C@@H](Cc1ccccc1)C(=O)N[C@H](C(=O)N[C@@H](CCC(N)=O)C(=O)N[C@@H](Cc1c[nH]c2ccccc12)C(=O)N[C@@H](CC(C)C)C(=O)N[C@@H](CC(C)C)C(=O)N[C@@H](CCCCNC(=O)CC[C@H](NC(=O)CC[C@H](NC(=O)COCCOCCNC(=O)COCCOCCNC(=O)CC[C@H](NC(=O)CCCCCCCCCCCCCCCCC(=O)O)C(=O)O)C(=O)O)C(=O)O)C(=O)N[C@H](C(N)=O)[C@@H](C)O)C(C)C [Example 4, N^ε28-[(4S)-4-carboxy-4-[[(4S)-4-carboxy-4-[[2-[2-[2-[[2-[2-[2-[[(4S)-4-carboxy-4-(17-carboxyheptadecanoylamino)butanoyl]amino]ethoxy]ethoxy]acetyl]amino]ethoxy]ethoxy]acetyl]amino]butanoyl]amino]butanoyl]-[Aib2,Leu10,Arg20,Leu27,Lys28]-Glucagon amide] (H-H[Aib]QGTFTSDLSKYLDSRRARDFVQWLLK([γGlu-γGlu-AEEA-AEEA-γGlu-C18 diacid])T-NH2; N-terminus assumed)
0.004	0.017	0.7	CC(C)C[C@H](NC(=O)[C@H](CC(=O)O)NC(=O)[C@H](CC(C)C)NC(=O)[C@H](Cc1ccc(O)cc1)NC(=O)[C@H](CCCCN)NC(=O)[C@H](CO)NC(=O)[C@@H](NC(=O)[C@H](CC(=O)O)NC(=O)[C@H](CO)NC(=O)[C@@H](NC(=O)[C@H](Cc1ccccc1)NC(=O)[C@@H](NC(=O)CNC(=O)[C@H](CCC(N)=O)NC(=O)C(C)(C)NC(=O)[C@@H](N)Cc1c[nH]cn1)[C@@H](C)O)[C@@H](C)O)C(C)C)C(=O)N[C@@H](CCCNC(=N)N)C(=O)N[C@@H](CCCNC(=N)N)C(=O)N[C@@H](C)C(=O)N[C@@H](CCC(N)=O)C(=O)N[C@@H](CC(=O)O)C(=O)N[C@@H](Cc1ccccc1)C(=O)N[C@H](C(=O)N[C@@H](CCC(N)=O)C(=O)N[C@@H](Cc1c[nH]c2ccccc12)C(=O)N[C@@H](CC(C)C)C(=O)N[C@@H](CC(C)C)C(=O)N[C@@H](CCCCNC(=O)COCCOCCNC(=O)COCCOCCNC(=O)CC[C@H](NC(=O)CC[C@H](NC(=O)CC[C@H](NC(=O)CCCCCCCCCCCCCCCCC(=O)O)C(=O)O)C(=O)O)C(=O)O)C(=O)N[C@H](C(N)=O)[C@@H](C)O)C(C)C [Example 71, N^ε28-[2-[2-[2-[[2-[2-[2-[[(4S)-4-carboxy-4-[[(4S)-4-carboxy-4-[[(4S)-4-carboxy-4-(17-carboxyheptadecanoylamino)butanoyl]amino]butanoyl]amino]butanoyl]amino]ethoxy]ethoxy]acetyl]amino]ethoxy]ethoxy]acetyl]-[Aib2,Val10,Leu16,Leu27,Lys28]-Glucagon amide] (H-H[Aib]QGTFTSDVSKYLDLRRAQDFVQWLLK([AEEA-AEEA-γGlu-γGlu-γGlu-C18 diacid])T-NH2)
